The structures appear in SMILES notation.

For the test, the target named is T1, mox1 NADPH-oxidase (Homo sapiens, UniProt Q9Y5S8, I173V).
T1 construct: expressed in transfected cells
T1 sequence (Q9Y5S8 1-564 I173V): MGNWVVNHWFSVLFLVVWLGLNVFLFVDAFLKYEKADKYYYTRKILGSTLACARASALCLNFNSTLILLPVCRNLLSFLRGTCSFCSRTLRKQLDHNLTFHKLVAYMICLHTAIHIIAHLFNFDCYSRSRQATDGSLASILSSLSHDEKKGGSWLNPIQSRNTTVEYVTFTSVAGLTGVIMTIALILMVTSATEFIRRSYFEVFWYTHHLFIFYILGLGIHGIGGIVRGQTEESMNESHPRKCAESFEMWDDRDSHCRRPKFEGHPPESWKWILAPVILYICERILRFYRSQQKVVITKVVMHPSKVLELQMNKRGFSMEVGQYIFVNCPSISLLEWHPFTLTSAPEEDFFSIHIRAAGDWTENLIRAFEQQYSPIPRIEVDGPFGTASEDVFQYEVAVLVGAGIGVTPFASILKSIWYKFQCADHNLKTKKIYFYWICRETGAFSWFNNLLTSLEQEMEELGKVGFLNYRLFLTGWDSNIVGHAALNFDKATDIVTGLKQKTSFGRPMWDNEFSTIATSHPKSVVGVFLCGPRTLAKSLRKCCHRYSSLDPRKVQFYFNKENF
T1 sequence (Q61462 1-192 partner): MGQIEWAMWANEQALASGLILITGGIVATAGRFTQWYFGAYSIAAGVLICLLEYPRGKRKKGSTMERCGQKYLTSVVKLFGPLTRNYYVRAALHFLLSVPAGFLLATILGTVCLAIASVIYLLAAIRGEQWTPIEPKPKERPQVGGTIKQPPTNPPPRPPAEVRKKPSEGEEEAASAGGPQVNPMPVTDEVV
The test is described as follows: Cell-free assay for mox1 NADPH-oxidase activity (NADPH-dependent chemiluminescence of cell lysates). The note with it: MgCl2 1-5 mM. It counts as biochemical. As to the method:
In an alternate and preferred embodiment of the present invention, cells that had been stably transfected with mox1 (YA28) or with empty vector (NEF2) were grown in 10 cm tissue culture plates in medium containing DMEM, 10% calf serum, 100 units/ml penicillin, 100 μg/ml streptomycin, and 1 μg/ml puromycin to approximately 80% confluency. Cells (five tissue culture plates of each cell type) were washed briefly with 5 ml phosphate buffered saline (PBS) then dissociated from the plates with PBS containing 5 mM EDTA. Cells were pelleted by centrifuging briefly at 1000×g.
To permeabilize the cells, freeze thaw lysis was carried out and this was followed by passage of the cell material through a small bore needle. The supernatant was removed and the cells were frozen on dry ice for 15 minutes. […]
The cell lysates were assayed for protein concentration using the BioRad protein assay system. […] The reaction was initiated by adding 1.5 mM NADPH and 75 μM lucigenin to the assay mix to give a final concentration of 200 μM NADPH and 10 μM lucigenin, and the chemiluminescence was monitored immediately. […] The plate was monitored continuously for 60 minutes and the maximal relative luminescence unit (RLU) value for each sample was used for the graph. […]

Consider `[Cl-].[Cl-].[Mg+2]` [MgCl2], for which the “enhancement of NADPH-oxidase activity” value was “about 2 fold”.

Source of the values: patent publication US7247709B2, “Mitogenic oxygenases” (Emory University, priority 1998, dated 2007).
